# Measurements as given in a melting point compilation (Tetko et al.; mined from patent text by program, amines drawn as free bases though some values may be those of a salt).
row,SMILES,melting point
1,Nc1cnc(-c2ccncc2)c(-c2cccc(F)c2)n1,221 to 222 °C
2,Cc1ccc(S(=O)(=O)NCc2nc(C(C)C)c(Sc3cc(Cl)cc(Cl)c3)n2C)cc1,85 to 87 °C
3,O=C(O)C=Cc1ccc(CCNS(=O)(=O)c2ccc(Cl)cc2)cc1,85 to 86 °C
4,COc1ccc2[nH]c(SCc3ncc(C)c(N4CCCC4)c3Cl)nc2c1,152 to 158 °C
5,O=C(O)C1CCc2cc(Cl)c(C3CCCCC3)cc21 (stereo not given),140 to 143 °C
6,O=C1NC(=O)N(CCc2ccc(Cl)cc2)C1O (stereo not given),151 to 152 °C
7,CC(C)C(=O)Nc1ccc(OCc2ccccc2)c(Br)c1N(C)C,197 to 198 °C
8,Cc1cc(C)nc(NC(=O)C(N)CC(C)C)c1 (stereo not given),78 °C
9,COc1cc2nccc(CC(=O)O)c2cc1OC,> 250 °C
10,c1ccc(-c2c[nH]nc2-c2ccccc2)cc1,150 to 152 °C
11,CCCCCCCNC(=O)N(C)c1cccc(-c2ccc(C=C(OCC)C(=O)O)cc2OCCCC)c1,103 °C
12,COC(=O)C1CC(=O)n2c3c(c4cc(F)ccc42)CCNC31 (stereo not given),172 °C
13,COc1cc(-c2cnc(N[N+](=O)[O-])[nH]c2=O)ccn1,194 to 196 °C
14,Oc1cc(Br)cc(-c2ccc3nonc3c2)c1,179 to 181 °C
15,CC(C)(C)NC(=O)C(O)c1cccc(Cl)c1 (stereo not given),93 to 99 °C
16,CCC1CC(=O)N(Cc2ccc(NC(C)=O)cc2)N=C1c1ccc(OC)c(OC2CCCC2)c1 (stereo not given),162 °C
17,COc1cc(-c2ccc(C=O)cc2)nc(C)n1,114 to 115 °C
18,Cc1nnsc1C(=O)Nc1ccc(-n2nc(C(F)(F)F)cc2C2CC2)cc1,84 to 89 °C
19,CCCCOCCCNc1ccc(-n2cc(C(F)(F)F)ccc2=O)c(Cl)c1,83 to 85 °C
20,COc1cccc(C(=O)Nc2ccc(C(=O)c3ccccc3)cc2)c1,139 to 141 °C
21,c1cc2c3c(cccc3c1)C(NCCCCCCCCCCCCn1ccnc1)=N2,95 to 97 °C
22,CCOC(=O)C1=C(C)NC(N)=C(C(=O)OCC)C1c1ccccc1[N+](=O)[O-] (stereo not given),159 °C
23,CCCCCCCCCCCCc1ccc(S(=O)(=O)Nc2nnc(CCCCCNC)s2)cc1,158 to 160 °C
24,Cc1nsc(NC(=O)Cc2ccc(O)c(N)c2)c1Cl,239 to 243 °C
25,CCOC(=O)c1nc(N)nc(N)c1-c1ccc(Cl)cc1Cl,178 °C
26,COc1ccc(Cl)cc1C(=O)NCc1ccc(CC(=O)O)cc1,140 to 141 °C
27,COc1cccc(Nc2ccnc(Nc3ccc(OC)c(OC)c3)n2)c1,135 to 138 °C
28,"CS(=O)C1CC(=O)N1CC(=O)NCc1ccccc1 (single isomer, unassigned; (-))",138 to 140 °C
29,O=C(O)C(=O)c1ccc(C(=O)NCCOc2ccc3ccccc3c2)cc1,173 to 175 °C
30,CCc1cc2[nH]c(=O)oc2cc1NCC1CCCOC1 (stereo not given),148 °C

# Next, values leading:
row,melting point,SMILES
1,151 to 152 °C,NC(=O)N1CC(Oc2cccc(C(F)(F)F)c2)C1
2,49 to 50 °C,O=C1CC2OC(CBr)CN12 (stereo not given)
3,> 300 °C,CCC1=C(C#N)C(c2cccc(Cl)c2Cl)c2c[nH]nc2N1 (stereo not given)
4,88 to 90 °C,CC(C)(C)COC(=O)COc1ccc(C(=O)CN2CCN(c3ccncc3)CC2)cc1
5,109 to 111 °C,O=C(Nc1ccc(C(F)(F)F)cc1)C(=O)N1CCC(Cc2ccc(F)cc2)CC1
6,119 to 121 °C,C[C@H](NC(=O)C12CC3CC(CC(C3)C1)C2)C(=O)N1CCC[C@H]1C(=O)Nc1ccccc1
7,174 to 178 °C,O=C1c2c(Br)cccc2S(=O)(=O)N1CSc1ccccc1
8,258 °C,Cc1ccc(N2C(=O)C(O)=C(C(=O)c3ccc(OC(F)(F)F)cc3)C2c2ccc(Cn3ncnn3)cc2)nn1 (stereo not given)
9,183 to 186 °C,Cn1c2ccccc2c(=O)c2c(Cl)cccc21
10,266 to 268 °C,Cc1nc2c(cc1Br)c(=O)c(C(=O)NCc1ccc(Cl)cc1)cn2C
11,99.3 to 102 °C,CCC(Br)C(=O)NOCc1ccccc1 (stereo not given)
12,202 to 204 °C,COc1ccc(-c2cc(N3CCCCC3)c(C#N)c3c2-c2ccccc2C3)cc1
13,147 to 149 °C,CCCCCCCCCc1cc(C(=O)O)n[nH]1
14,104 to 106 °C,COC(=O)COc1ccc(-c2ccc(C(=O)OCc3ccccc3)cc2)cc1-c1ccc2c(c1)C(C)(C)CCC2(C)C
15,234 to 236 °C,CC1(C)C(=O)Nc2ccc(C#N)cc2N(CC2CC2)C1=O
16,215 to 217 °C,O=C1NC(=O)C2(C(=O)N(Cc3ccc(Cl)c(Cl)c3)c3ccccc32)N1C(=O)OCc1ccccc1 (stereo not given)
17,254 to 257 °C,CS(=O)(=O)c1ccc(-c2[nH]c3ccc(Cl)cc3c2-c2cccc(Cl)c2)cc1
18,> 300 °C,Oc1nc2ccnn2c2ncccc12
19,203 to 205 °C,CS(=O)(=O)Nc1cccc(Nc2nc(OC3CCCC3)c3cc[nH]c3n2)c1
20,127 to 130 °C,CCCc1nc2c(N)nc3cc(OCCN4CCCS4(=O)=O)ccc3c2s1
21,186 °C,O=S1(=O)CCC(c2ccccc2)(c2ccccc2)[C@@H]2CN(Cc3ccccc3)C[C@@H]21 (racemic)
22,104 to 106 °C,COC(=O)CC1COc2ccc(N)cc2C1 (stereo not given)
23,162 to 164 °C,O=C1CCCN(C(=O)c2ccc([N+](=O)[O-])cc2Cl)c2ncccc21

row,melting point,SMILES
1,129 to 130 °C,COC(=O)c1ccc2c(ccn2Cc2cccc([N+](=O)[O-])c2)c1
2,136 °C,CSc1ccc(-c2nn(CC3CC3)c(=S)cc2-c2ccc(F)cc2)cc1
3,104 °C,CCOC(=O)c1cc(OC(C)=O)c2cc(OC)ccc2c1
4,145 to 160 °C,ON=C(c1ccc(O)c(Cl)c1Cl)c1cccc2ccccc12
5,151 to 154 °C,CN1NC(=O)C2C(C1=O)C2(C)C (stereo not given)
6,105 to 106 °C,C#Cc1ccc(C#N)cc1OC
7,224 to 245 °C,O=Cc1c2ccccc2c(C=O)c2ccccc12
8,170 to 175 °C,CCCCCCCCNC1=NS(=O)(=O)c2cc(Cl)cnc2N1
9,160 to 162 °C,NC(=O)N(O)CCNC(=O)c1ccc(-c2ccccc2)cc1
10,242 to 244 °C,CCn1c(=O)c2c(nc(/C=C/c3cccc(O)c3O)n2C)n(CC)c1=O
11,124 to 126 °C,O=C(O)CCCCCc1c[nH]c2ccccc12
12,86 to 91 °C,Cc1oc2c(Br)cc(C3CCN(Cc4ccccc4)CC3)cc2c1C
13,106 to 108 °C,CC(C)(C)[Si](C)(C)Oc1ccccc1-c1cc(-c2cccc([N+](=O)[O-])c2)c(C#N)c(NC(=O)c2cccs2)n1
14,224 °C,CC(C)CC(CS)C(=O)N[C@H]1Cc2cn(c3ccccc23)CCCCCCNC1=O (stereo not given in full)
15,191 to 193 °C,COc1cc2c(cc1O)CCC1C2CCC2(C)C(O)C=CC12 (stereo not given)
16,60 to 61 °C,CC1(C)OCCC2CC(=O)N21 (stereo not given)
17,166 to 168 °C,CC(c1ccccc1)C(C(=O)c1ccccc1)n1cncn1 (stereo not given)
18,89 to 93 °C,c1cc2c3c(cccc3c1)NCN2
19,116 to 118 °C,C#CCNC1(c2ccccc2)c2ccccc2Oc2ccccc21
20,120 to 122 °C,CC(=O)Oc1ccc2c(c1)CCC1C2CCC2(C)C(OS(C)(=O)=O)CCC12 (stereo not given)
21,143 to 155 °C,CCOc1c(Nc2cc(C(F)(F)F)ccc2OC)c(=O)c1=O
22,204 to 206 °C,NNC(=O)c1cn2c(nc1=O)CCC2
